Here are results for one compound from US20240101566A1, “TRICYCLIC UBIQUITIN SPECIFIC PROTEASE 1 INHIBITOR AND USE THEREOF” (SHANDONG XUANZHU PHARMA CO., LTD., priority 2021, published 2024).

The structures appear in SMILES notation.

Series [1] addresses Recombinant Human His6-USP1/His6-UAF1 Complex Protein (Homo sapiens (Human), UniProt O94782). The series is described as follows: In-vitro enzymatic activity on USP1, first experimental method (Ub-Rho substrate, 15 min incubation). It is filed as biochemical. To be noted: incubation at room temperature 15 minutes, read-out: Inhibitory activities on USP-1, IC50. As for the experimental part: Experimental Example 1 In-vitro Enzymatic Activities of Compounds of the Present Disclosure
First Experimental Method:
1) The compounds of the present disclosure were prepared to 10 mM with DMSO, and used as test stock solutions.
2) The stock solutions of the compounds of the present disclosure were diluted in a 4-fold gradient for 10 concentrations, with a maximum concentration of 10 mM.
3) The diluted compounds of the present disclosure were respectively transferred to 384-well plates (diluted by 1,000 folds) by Echo550, 2 multiple wells were set for each concentration, and a final concentration of DMSO was […].
1) An enzyme solution was prepared in 1×test buffer.
2) Ubiquitin Rhodamine 110 protein, CF (UB-Rho), was added into 1×determination buffer to prepare a substrate solution.
3) 10 μL of enzyme solution and 1×reaction buffer were transferred to a 384-well plate, and
4) incubated at room temperature for 15 minutes.
5) 10 μL of substrate solution was added into each well to start the reaction, centrifuged for 30 seconds, and shaken for 30 seconds.
1) Plate reading was carried out on SpectraMax Paradigm for 30 minutes, with an excitation wavelength of 480 nm and an emission wavelength of 540 nm.
2) Data on SpectraMax Paradigm were collected.
An inhibition (% inh) was calculated by the following formula:
[formula] • wherein, Max represented: a luminous signal intensity of a positive control well without adding the compound; • Min represented: a luminous signal intensity of a negative control well without adding the enzyme; and • Signal represented: a luminous signal intensity of the compound of the test sample.
IC50 was Calculated by the Following Formula:
[formula] • wherein, Y represented: % inhibition; and • X represented: the concentration of the compound.

Series [2] relates to MDA-MB-436 cells. The experiment in a line: First in-vitro cytological inhibitory activity experiment (CelltiterGlo assay). To be noted: Experimental Example 2, 4,000 cells/well, 7 days, read-out: In-vitro cytological activities, IC50, MDA-MB-436. The format is cell-based, human. How it is done:
Experimental Example 2 First Experiment of in-vitro Cytological Inhibitory Activities of Compounds of the Present Disclosure
A cell line used in the following experiment was as follows: MDA-MB-436: human breast cancer cells.
Experimental method (CelltiterGlo assay)
All cells were adherent cells, the medium was DMEM+10% FBS+1% ITS-G+16 μg/ml glutathione, and the cells were tested in a logarithmic growth phase.
Cells in the logarithmic growth phase were collected and counted by a […]. The cell viability was detected by a trypan blue exclusion method, and the cell viability was kept over 90%. The cell concentration was adjusted to be in a proper range, and 90 μL of cell suspension was added into a 96-well plate respectively.
2.1 DMSO stock solutions of the test compounds were prepared, and concentrations of the stock solutions of the test compounds were 10 mM respectively.
The stock solutions of the test compounds were serially diluted from 10 mM with DMSO in a 3-fold gradient for a total of 8 concentrations. Then, 2 µL of DMSO-gradient diluted compounds were respectively added into 198 µL of culture solutions to give the working stock solutions of the test compounds (a compound concentration was 10-fold higher than the final concentration, and a maximum concentration was […]).
10 μL of compound working stock solution was added into each well in the 96-well plate inoculated with cells (10-fold dilution, a final DMSO concentration was 0.1%).
Solvent control: 0.1% DMSO. […]
A CTG reagent was thawed and the 96-well plate was equilibrated to room temperature for 30 minutes, 60 μL of reagent (Celititer Glo assay kit) was added into each well, shaking was carried out for 2 minutes with a shaker (in the absence of light), and the plate was incubated at room temperature for 20 minutes (in the absence of light). Light signal values were read on a multi-functional microplate reader.
1) inhibition (%)=(DMSO solvent control well reading−test compound well reading)/(DMSO solvent control well reading−blank control well reading)×100%; […]

On the set-up of series [3]: species or system mice. To be noted: mouse, in vivo, iv, 5 mg/kg. As for the experimental part: Experiment Example 4 Pharmacokinetic Experiment of Compounds of the Present Disclosure 1. Test compounds: the compounds in the examples of the present disclosure, prepared according to the examples in the specification of the present disclosure. [table] (1) Intravenous administration (iv): 2.54 mg of compound 11 was taken, added with 0.495 ml of DMSO solution to be dissolved by vortex and ultrasound, added with 0.495 ml of PEG400 to be mixed by vortex, and then added with 1.484 ml of 28% HP-β-CD to be mixed by vortex to obtain a clear solution, with a concentration of 1 mg/ml. (2) Oral administration (po): 3.33 mg of compound 11 was taken, added with 3.243 ml of solvent (2% HPC+0.1% Tween 80), and ground evenly to obtain a uniform suspension, with a concentration of 1 mg/ml. The test compounds were administered intravenously (iv), with an administration dosage of 5 mg/kg and an administration volume of 5 ml/kg. The test compounds were administered orally (po), with an administration dosage of 10 mg/kg and an administration volume of 10 ml/kg. […] LC-MS/MS was to be analyzed.

Recombinant Human His6-USP1/His6-UAF1 Complex Protein, sequence (O94782 whole entry): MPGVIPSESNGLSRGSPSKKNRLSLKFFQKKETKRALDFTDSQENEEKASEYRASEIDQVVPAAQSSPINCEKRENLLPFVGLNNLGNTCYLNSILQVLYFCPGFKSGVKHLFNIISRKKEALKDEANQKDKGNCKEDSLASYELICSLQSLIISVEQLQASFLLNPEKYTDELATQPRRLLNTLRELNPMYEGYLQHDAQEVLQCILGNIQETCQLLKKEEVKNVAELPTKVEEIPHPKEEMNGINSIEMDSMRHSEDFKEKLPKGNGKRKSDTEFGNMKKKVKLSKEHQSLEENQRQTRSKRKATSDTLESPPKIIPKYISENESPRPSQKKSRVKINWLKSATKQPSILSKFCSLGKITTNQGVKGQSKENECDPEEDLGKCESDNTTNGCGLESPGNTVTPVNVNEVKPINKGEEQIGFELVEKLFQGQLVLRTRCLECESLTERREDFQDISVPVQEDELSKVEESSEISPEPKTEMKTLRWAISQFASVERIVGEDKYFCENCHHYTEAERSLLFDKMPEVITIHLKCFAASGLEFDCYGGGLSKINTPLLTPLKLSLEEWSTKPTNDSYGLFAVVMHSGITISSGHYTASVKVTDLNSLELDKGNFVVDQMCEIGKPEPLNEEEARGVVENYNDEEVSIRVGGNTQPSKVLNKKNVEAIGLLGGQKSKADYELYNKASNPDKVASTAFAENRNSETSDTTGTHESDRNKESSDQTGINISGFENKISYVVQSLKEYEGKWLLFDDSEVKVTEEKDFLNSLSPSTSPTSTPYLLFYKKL
Recombinant Human His6-USP1/His6-UAF1 Complex Protein, sequence (Q8TAF3 whole entry partner): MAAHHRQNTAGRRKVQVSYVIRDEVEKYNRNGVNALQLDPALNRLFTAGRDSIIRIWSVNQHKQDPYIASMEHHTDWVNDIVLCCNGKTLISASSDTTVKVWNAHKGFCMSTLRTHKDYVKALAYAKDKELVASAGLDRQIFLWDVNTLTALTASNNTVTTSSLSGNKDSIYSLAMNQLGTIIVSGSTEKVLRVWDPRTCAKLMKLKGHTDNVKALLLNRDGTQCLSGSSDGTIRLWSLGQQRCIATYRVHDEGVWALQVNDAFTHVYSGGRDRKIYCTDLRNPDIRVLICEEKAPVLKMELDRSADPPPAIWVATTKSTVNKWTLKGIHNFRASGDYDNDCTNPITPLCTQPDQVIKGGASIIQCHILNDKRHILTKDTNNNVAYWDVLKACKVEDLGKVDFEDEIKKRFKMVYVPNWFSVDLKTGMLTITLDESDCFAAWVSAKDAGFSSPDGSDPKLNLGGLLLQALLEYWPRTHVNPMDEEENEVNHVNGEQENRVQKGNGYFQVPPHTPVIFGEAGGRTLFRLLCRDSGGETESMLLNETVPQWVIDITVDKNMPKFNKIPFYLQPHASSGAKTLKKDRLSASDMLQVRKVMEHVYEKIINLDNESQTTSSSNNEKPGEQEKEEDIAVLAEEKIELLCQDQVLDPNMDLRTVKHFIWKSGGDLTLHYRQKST

What is called IC50 is the midpoint of a concentration-inhibition curve. Take `COc1ncnc(C2CC2)c1-c1nc2c3c(nn(Cc4ccc(-c5nc(C(F)(F)F)cn5C)cc4)c3n1)CCCC2` [Compound 11, 4-(4-cyclopropyl-6-methoxypyrimidine-5-yl)-2-(4-(1-methyl-4-(trifluoromethyl)-1H-imidazol-2-yl)benzyl)-6,7,8,9-tetrahydro-2H-1,2,3,5-tetraazabenzo[cd]pyrene]: the results for the IC50 in series [1] and in series [2] were 0.022 µM and 0.101 µM, respectively. Also, the exposure result in series [3] is listed as “more than 6,000 h*ng/ml”.
